Our source for the Kd values is article PMC6049504 (RNA, 2018).

SMILES strings stand for the structures.

Common to all, as to test: biochemical
In assay [1] the target is TkTrm10 (Thermococcus kodakarensis, UniProt Q5JD38).
Assay [2] concerns the target TkTrm10 (Thermococcus kodakarensis, UniProt Q5JD38, D206N/D245N).
The target in assay [3] is TkTrm10 (Thermococcus kodakarensis, UniProt Q5JD38, D206L).
Assay [4] has as its target TkTrm10 (Thermococcus kodakarensis, UniProt Q5JD38, D206A/D245A).

Chain of TkTrm10 (Thermococcus kodakarensis, UniProt Q5JD38, D206N/D245N) (Q5JD38 whole entry D206N/D245N): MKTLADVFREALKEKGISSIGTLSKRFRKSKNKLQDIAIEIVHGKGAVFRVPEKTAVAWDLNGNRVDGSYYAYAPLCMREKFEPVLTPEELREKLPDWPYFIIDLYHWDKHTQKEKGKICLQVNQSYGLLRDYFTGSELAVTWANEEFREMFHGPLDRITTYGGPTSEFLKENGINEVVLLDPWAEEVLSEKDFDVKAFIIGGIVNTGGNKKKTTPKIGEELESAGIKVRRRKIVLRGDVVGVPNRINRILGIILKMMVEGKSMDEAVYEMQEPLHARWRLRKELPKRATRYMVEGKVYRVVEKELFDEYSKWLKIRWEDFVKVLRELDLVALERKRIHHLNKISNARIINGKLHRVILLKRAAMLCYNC
Chain of TkTrm10 (Thermococcus kodakarensis, UniProt Q5JD38, D206A/D245A) (Q5JD38 whole entry D206A/D245A): as the sequence (Q5JD38 whole entry D206N/D245N) above, with N206A, N245A counted along it
Chain of TkTrm10 (Thermococcus kodakarensis, UniProt Q5JD38) (Q5JD38 whole entry): as the sequence (Q5JD38 whole entry D206N/D245N) above, with N206D, N245D counted along it
Chain of TkTrm10 (Thermococcus kodakarensis, UniProt Q5JD38, D206L) (Q5JD38 whole entry D206L): as the sequence (Q5JD38 whole entry D206N/D245N) above, with N206L, N245D counted along it

In the case of `C[S+](CC[C@H](N)C(=O)O)C[C@H]1O[C@@H](n2cnc3c(N)ncnc32)[C@H](O)[C@@H]1O` (stereo partly shown) [SAM], the Kd was determined as 9.4 ± 1.2 µM on TkTrm10 [1], 19.3 ± 3.4 µM at TkTrm10 [2], 68 ± 19 µM at TkTrm10 [3] and 20.4 ± 2.9 µM at TkTrm10 [4].

Broadly, the Kd is the concentration at which binding is half-saturated. Lower therefore signals tighter binding.
